This is an account of results in patent US9067977B2, “Peptides derivatized with A-B-C-D- and their therapeutical use” (Novo Nordisk A/S, priority 2007, dated 2015).

pEC50: −log10 of the molar value. Starred links: 1 amine or outer side, 2 acyl side, 3 side chain; linkers in the order of their positions; H or OH if unused. Residues, ends and D or L forms follow the SMILES beside them. Groups on a side chain read outwards from the residue. *: point of attachment. C20 diacid = O=C(O)CCCCCCCCCCCCCCCCCCC(=O)*; γGlu = O=C(O)[C@H](CCC(=O)[*:2])N[*:1]; Desaminohistidyl = O=C(CCc1c[nH]cn1)*; AEEA = NCCOCCOCC(=O)O; Inp = O=C(O)C1CCNCC1

For orientation: pEC50 means −log10 of the EC50, conventionally taken in molar units. In general, EC50 refers to the concentration needed to bring the measured effect to its halfway point.

human serum albumin (HSA), sequence (P02768 25-609): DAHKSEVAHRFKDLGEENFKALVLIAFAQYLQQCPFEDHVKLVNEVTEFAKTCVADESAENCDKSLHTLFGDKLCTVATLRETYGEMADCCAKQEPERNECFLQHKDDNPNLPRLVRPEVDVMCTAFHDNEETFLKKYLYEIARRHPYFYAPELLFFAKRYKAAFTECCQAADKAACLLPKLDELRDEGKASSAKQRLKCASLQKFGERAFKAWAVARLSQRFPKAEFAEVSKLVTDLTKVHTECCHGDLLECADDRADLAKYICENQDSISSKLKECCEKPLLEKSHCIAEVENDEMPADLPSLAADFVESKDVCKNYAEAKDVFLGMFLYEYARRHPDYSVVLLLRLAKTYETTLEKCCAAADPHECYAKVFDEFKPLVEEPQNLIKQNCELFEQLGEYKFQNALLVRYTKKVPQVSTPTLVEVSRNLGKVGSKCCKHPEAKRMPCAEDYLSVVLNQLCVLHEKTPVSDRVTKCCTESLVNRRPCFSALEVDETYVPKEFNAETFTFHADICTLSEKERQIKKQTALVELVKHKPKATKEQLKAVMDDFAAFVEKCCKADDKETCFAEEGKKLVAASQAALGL

The first data set addresses human serum albumin (HSA) (Homo sapiens, UniProt P02768). Briefly: Albumin binding affinity, competition scintillation proximity assay.
Details: not given
A general note: In a scintillation proximity assay essentially only radioactivity close to the scintillant gives light.
On to `CC[C@H](C)[C@H](NC(=O)[C@H](Cc1ccccc1)NC(=O)[C@H](CCC(=O)O)NC(=O)[C@H](CCCNC(=N)N)NC(=O)[C@H](C)NC(=O)[C@H](C)NC(=O)[C@H](CCC(N)=O)NC(=O)CNC(=O)[C@H](CCC(=O)O)NC(=O)[C@H](CC(C)C)NC(=O)[C@H](Cc1ccc(O)cc1)NC(=O)[C@H](CO)NC(=O)[C@H](CO)NC(=O)[C@@H](NC(=O)[C@H](CC(=O)O)NC(=O)[C@H](CO)NC(=O)[C@@H](NC(=O)[C@H](Cc1ccccc1)NC(=O)[C@@H](NC(=O)CNC(=O)[C@H](CCC(=O)O)NC(=O)[C@H](C)NC(=O)CCc1c[nH]cn1)[C@@H](C)O)[C@@H](C)O)C(C)C)C(=O)N[C@@H](C)C(=O)N[C@@H](Cc1c[nH]c2ccccc12)C(=O)N[C@@H](CC(C)C)C(=O)N[C@H](C(=O)N[C@@H](CCCNC(=N)N)C(=O)NCC(=O)N[C@@H](CCCNC(=N)N)C(=O)NCC(=O)N[C@@H](CCCCNC(=O)COCCOCCNC(=O)COCCOCCNC(=O)CC[C@H](NC(=O)C1CCN(C(=O)CCCCCCCCCCCCCCCCCCC(=O)O)CC1)C(=O)O)C(=O)O)C(C)C` [Example 59, [DesaminoHis7,Arg26,34]-GLP-1 (7-37)-Lys(2-{2-[2-(2-{2-[2-((S)-4-Carboxy-4-{[1-(19-carboxynonadecanoyl)piperidine-4-carbonyl]amino}butyrylamino)ethoxy]ethoxy}acetylamino)ethoxy]ethoxy}acetyl) peptide], for which the pEC50 is less than 5.70.

The compound `CC[C@H](C)[C@H](NC(=O)[C@H](Cc1ccccc1)NC(=O)[C@H](CCC(=O)O)NC(=O)[C@H](CCCNC(=N)N)NC(=O)[C@H](C)NC(=O)[C@H](C)NC(=O)[C@H](CCC(N)=O)NC(=O)CNC(=O)[C@H](CCC(=O)O)NC(=O)[C@H](CC(C)C)NC(=O)[C@H](Cc1ccc(O)cc1)NC(=O)[C@H](CO)NC(=O)[C@H](CO)NC(=O)[C@@H](NC(=O)[C@H](CC(=O)O)NC(=O)[C@H](CO)NC(=O)[C@@H](NC(=O)[C@H](Cc1ccccc1)NC(=O)[C@@H](NC(=O)CNC(=O)[C@H](CCC(=O)O)NC(=O)[C@H](C)NC(=O)CCc1c[nH]cn1)[C@@H](C)O)[C@@H](C)O)C(C)C)C(=O)N[C@@H](C)C(=O)N[C@@H](Cc1c[nH]c2ccccc12)C(=O)N[C@@H](CC(C)C)C(=O)N[C@H](C(=O)N[C@@H](CCCNC(=N)N)C(=O)NCC(=O)N[C@@H](CCCNC(=N)N)C(=O)N[C@@H](CCCCNC(=O)COCCOCCNC(=O)COCCOCCNC(=O)CC[C@H](NC(=O)C1CCN(C(=O)CCCCCCCCCCCCCCCCCCC(=O)O)CC1)C(=O)O)C(=O)O)C(C)C` [Example 60, N-epsilon37-(2-{2-[2-(2-{2-[2-((S)-4-Carboxy-4-{[1-(19-carboxynonadecanoyl)piperidine-4-carbonyl]amino}butyrylamino)ethoxy]ethoxy}acetylamino)ethoxy]ethoxy}acetyl) [DesaminoHis7,Arg26,Arg34,Lys37]GLP-1-(7-37)] had a pEC50 of 6.10 to 6.52.

Take `CC[C@H](C)[C@H](NC(=O)[C@H](Cc1ccccc1)NC(=O)[C@H](CCC(=O)O)NC(=O)[C@H](CCCNC(=N)N)NC(=O)[C@H](C)NC(=O)[C@H](C)NC(=O)[C@H](CCC(N)=O)NC(=O)[C@H](CCC(=O)O)NC(=O)[C@H](CCC(=O)O)NC(=O)[C@H](CC(C)C)NC(=O)[C@H](Cc1ccc(O)cc1)NC(=O)[C@H](CO)NC(=O)[C@H](CO)NC(=O)[C@@H](NC(=O)[C@H](CC(=O)O)NC(=O)[C@H](CO)NC(=O)[C@@H](NC(=O)[C@H](Cc1ccccc1)NC(=O)[C@@H](NC(=O)CNC(=O)[C@H](CCC(=O)O)NC(=O)[C@H](C)NC(=O)CCc1c[nH]cn1)[C@@H](C)O)[C@@H](C)O)C(C)C)C(=O)N[C@@H](C)C(=O)N[C@@H](Cc1c[nH]c2ccccc12)C(=O)N[C@@H](CC(C)C)C(=O)N[C@H](C(=O)N[C@@H](CCCNC(=N)N)C(=O)NCC(=O)N[C@@H](CCCNC(=N)N)C(=O)NCC(=O)N[C@@H](CCCCNC(=O)CC[C@H](NC(=O)C1CCN(C(=O)CCCCCCCCCCCCCCCCCCC(=O)O)CC1)C(=O)O)C(=O)O)C(C)C` [Example 62, [DesaminoHis7,Glu22,Arg26,34]-GLP-1 (7-37)-Lys-((S)-4-Carboxy-4-{[1-(19-carboxy-nonadecanoyl)-piperidine-4-carbonyl]-amino}-butyryl) peptide] (Desaminohistidyl-AEGTFTSDVSSYLEEQAAREFIAWLVRGRGK([γGlu-Inp-C20 diacid])-OH): the pEC50 is 6.10 to 6.52.

For `CC[C@H](C)[C@H](NC(=O)[C@H](Cc1ccccc1)NC(=O)[C@H](CCC(=O)O)NC(=O)[C@H](CCCNC(=N)N)NC(=O)[C@H](C)NC(=O)[C@H](C)NC(=O)[C@H](CCC(N)=O)NC(=O)[C@H](CCC(=O)O)NC(=O)[C@H](CCC(=O)O)NC(=O)[C@H](CC(C)C)NC(=O)[C@H](Cc1ccc(O)cc1)NC(=O)[C@H](CO)NC(=O)[C@H](CO)NC(=O)[C@@H](NC(=O)[C@H](CC(=O)O)NC(=O)[C@H](CO)NC(=O)[C@@H](NC(=O)[C@H](Cc1ccccc1)NC(=O)[C@@H](NC(=O)CNC(=O)[C@H](CCC(=O)O)NC(=O)[C@H](C)NC(=O)CCc1c[nH]cn1)[C@@H](C)O)[C@@H](C)O)C(C)C)C(=O)N[C@@H](C)C(=O)N[C@@H](Cc1c[nH]c2ccccc12)C(=O)N[C@@H](CC(C)C)C(=O)N[C@H](C(=O)N[C@@H](CCCNC(=N)N)C(=O)NCC(=O)N[C@@H](CCCNC(=N)N)C(=O)N[C@@H](CCCCNC(=O)COCCOCCNC(=O)CC[C@H](NC(=O)CC[C@H](NC(=O)CCCCCCCCCCCNC(=O)CCCS(=O)(=O)NC(=O)CCCCCCCCCCCCCCCc1nnn(C(C)(C)C)n1)C(=O)O)C(=O)O)C(=O)O)C(C)C` [Example 64, N-epsilon37-{2-[2-(2-{(S)-4-[(S)-4-(12-{4-[16-(2-tert-Butyl-2H-tetrazol-5-yl)-hexadecanoylsulfamoyl]butyrylamino}dodecanoylamino)-4-carboxybutyrylamino]-4-carboxybutyrylamino}ethoxy)ethoxy]acetyl}[DesaminoHis7,Glu22,Arg26,Arg34,Lys37] GLP-1 (7-37)], the negative logarithm of the EC50 (pEC50) was 7.00 to 9.00.

Still in this data set, the particulars now being: human, biotinylated human serum albumin on streptavidin-SPA beads, pH 7.4.
`CC[C@H](C)[C@H](NC(=O)[C@H](Cc1ccccc1)NC(=O)[C@H](CCC(=O)O)NC(=O)[C@H](CCCNC(=N)N)NC(=O)[C@H](C)NC(=O)[C@H](C)NC(=O)[C@H](CCC(N)=O)NC(=O)[C@H](CCC(=O)O)NC(=O)[C@H](CCC(=O)O)NC(=O)[C@H](CC(C)C)NC(=O)[C@H](Cc1ccc(O)cc1)NC(=O)[C@H](CO)NC(=O)[C@H](CO)NC(=O)[C@@H](NC(=O)[C@H](CC(=O)O)NC(=O)[C@H](CO)NC(=O)[C@@H](NC(=O)[C@H](Cc1ccccc1)NC(=O)[C@@H](NC(=O)CNC(=O)[C@H](CCC(=O)O)NC(=O)[C@H](C)NC(=O)CCc1c[nH]cn1)[C@@H](C)O)[C@@H](C)O)C(C)C)C(=O)N[C@@H](C)C(=O)N[C@@H](Cc1c[nH]c2ccccc12)C(=O)N[C@@H](CC(C)C)C(=O)N[C@H](C(=O)N[C@@H](CCCNC(=N)N)C(=O)NCC(=O)N[C@@H](CCCNC(=N)N)C(=O)NCC(=O)N[C@@H](CCCCNC(=O)CC[C@H](NC(=O)COCCOCCNC(=O)CC[C@H](NC(=O)C1CCN(C(=O)CCCCCCCCCCCCCCCCCCC(=O)O)CC1)C(=O)O)C(=O)O)C(=O)O)C(C)C` [Example 57, [DesaminoHis7,Glu22,Arg26,34]-GLP-1 (7-37)-Lys((S)-4-carboxy-4-(2-{2-[2-((S)-4-carboxy-4-{[1-(19-carboxynonadecanoyl)piperidine-4-carbonyl]amino}butyrylamino)ethoxy]ethoxy}acetylamino)butyryl) peptide] (Desaminohistidyl-AEGTFTSDVSSYLEEQAAREFIAWLVRGRGK([γGlu-AEEA-γGlu-Inp-C20 diacid])-OH) showed an EC50 at 20 h of 0.1 to 0.15 µM.

In turn, `CC[C@H](C)[C@H](NC(=O)[C@H](Cc1ccccc1)NC(=O)[C@H](CCC(=O)O)NC(=O)[C@H](CCCNC(=N)N)NC(=O)[C@H](C)NC(=O)[C@H](C)NC(=O)[C@H](CCC(N)=O)NC(=O)[C@H](CCC(=O)O)NC(=O)[C@H](CCC(=O)O)NC(=O)[C@H](CC(C)C)NC(=O)[C@H](Cc1ccc(O)cc1)NC(=O)[C@H](CO)NC(=O)[C@H](CO)NC(=O)[C@@H](NC(=O)[C@H](CC(=O)O)NC(=O)[C@H](CO)NC(=O)[C@@H](NC(=O)[C@H](Cc1ccccc1)NC(=O)[C@@H](NC(=O)CNC(=O)[C@H](CCC(=O)O)NC(=O)[C@H](C)NC(=O)CCc1c[nH]cn1)[C@@H](C)O)[C@@H](C)O)C(C)C)C(=O)N[C@@H](C)C(=O)N[C@@H](Cc1c[nH]c2ccccc12)C(=O)N[C@@H](CC(C)C)C(=O)N[C@H](C(=O)N[C@@H](CCCNC(=N)N)C(=O)NCC(=O)N[C@@H](CCCNC(=N)N)C(=O)NCC(=O)N[C@@H](CCCCNC(=O)COCCOCCNC(=O)CC[C@H](NC(=O)COCCOCCNC(=O)CC[C@H](NC(=O)C1CCN(C(=O)CCCCCCCCCCCCCCCCCCC(=O)O)CC1)C(=O)O)C(=O)O)C(=O)O)C(C)C` [Example 58, [DesaminoHis7,Glu22,Arg26,34]-GLP-1 (7-37)-Lys-(2-(2-{2-[(S)-4-carboxy-4-(2-{2-[2-((S)-4-carboxy-4-{[1-(19-carboxynonadecanoyl)piperidine-4-carbonyl]amino}butyrylamino)ethoxy]ethoxy}acetylamino)butyrylamino]ethoxy}ethoxy)acetyl) peptide] (Desaminohistidyl-AEGTFTSDVSSYLEEQAAREFIAWLVRGRGK([AEEA-γGlu-AEEA-γGlu-Inp-C20 diacid])-OH) displayed an EC50 at 20 h of 0.1 to 0.15 µM.
